Data as given in ChEMBL document CHEMBL4402594, “Interrogating the Lactate Dehydrogenase Tetramerization Site Using (Stapled) Peptides” (J Med Chem, 2020).
Counter-ions that a name gives are not always drawn. Active and inactive are the calls of the source. The rule behind the calls is not given here. Peptide text beside a SMILES is read from it.

Tests used:
[1] = molecular target: T1, L-lactate dehydrogenase B chain (Homo sapiens, UniProt P07195); experiment: Binding affinity to truncated human N-terminal His6-tagged LDH-H expressed in Escherichia coli Rosetta (DE3) after 5 mins by Red-NHS fluorescence dye-based microscale thermophoresis analysis
[2] = molecular target: T1, L-lactate dehydrogenase B chain; experiment: Binding affinity to truncated human N-terminal His6-tagged LDH-H expressed in Escherichia coli Rosetta (DE3) in sodium phosphate buffer at pH 7.6 by WaterLOGSY NMR analysis
Target sequence in this assay (P07195 2-334 limits assumed): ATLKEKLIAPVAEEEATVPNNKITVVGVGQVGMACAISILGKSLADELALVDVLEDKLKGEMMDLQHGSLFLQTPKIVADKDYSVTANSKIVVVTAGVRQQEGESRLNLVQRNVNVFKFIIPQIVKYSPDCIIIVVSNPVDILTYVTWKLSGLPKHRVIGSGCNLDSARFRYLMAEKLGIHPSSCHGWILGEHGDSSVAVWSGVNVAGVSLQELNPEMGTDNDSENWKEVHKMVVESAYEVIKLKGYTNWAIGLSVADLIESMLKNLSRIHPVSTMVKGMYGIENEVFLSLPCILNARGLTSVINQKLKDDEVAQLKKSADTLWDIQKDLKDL

[3] = molecular target: T2, L-lactate dehydrogenase A chain (Homo sapiens, UniProt P00338); experiment: Binding affinity to human N-terminal His6-tagged LDH-5 expressed in Escherichia coli Rosetta (DE3) assessed as thermal denaturation up to 500 uM by nano differential scanning fluorimetry analysis
[4] = molecular target: T1, L-lactate dehydrogenase B chain; experiment: Binding affinity to recombinant full length human His-tagged LDH-1 (1 to 322 residues) expressed in Escherichia coli assessed as thermal denaturation up to 500 uM by nano differential scanning fluorimetry analysis
Target sequence in this assay (P07195 2-334 limits assumed): as above

[5] = molecular target: L-lactate dehydrogenase A chain (Oryctolagus cuniculus) (UniProt P13491); experiment: Binding affinity to rabbit LDH-M assessed as acid-induced dimerization by measuring fluorescence recovery at pH 5 by nano differential scanning fluorimetry analysis
[6] = molecular target: T1, L-lactate dehydrogenase B chain; experiment: Competitive binding affinity to recombinant full length human His-tagged LDH-1 (1 to 322 residues) expressed in Escherichia coli assessed as protein-compound interaction at N-terminal domain after 5 mins by Red-NHS fluorescence dye based microscale thermophoresis analysis
Target sequence in this assay (P07195 2-334 limits assumed): as above

[7] = Conformational stability in sodium phosphate buffer assessed as increase in alpha-helicity with strong theta 206 band formation at 100 uM by circular dichroism method; assay type: physicochemical
[8] = molecular target: T2, L-lactate dehydrogenase A chain; experiment: Competitive binding affinity to human N-terminal His6-tagged LDH-5 expressed in Escherichia coli Rosetta (DE3) assessed as protein-compound interaction at N-terminal domain after 5 mins by Red-NHS fluorescence dye-based microscale thermophoresis analysis
[9] = molecular target: L-lactate dehydrogenase A chain (Oryctolagus cuniculus) (UniProt P13491); experiment: Binding affinity to rabbit LDH-5 assessed as acid-induced dimerization by measuring fluorescence recovery at pH 7.6 by nano differential scanning fluorimetry analysis
[10] = tested on: L-lactate dehydrogenase B chain (Homo sapiens), P07195 [I9A]; experiment: Binding affinity to full length human N-terminal His6-tagged LDH-H I8A mutant expressed in Escherichia coli Rosetta (DE3) assessed as changed in melting temperature heated up to 95 degree C for 3 mins by nano differential scanning fluorimetry analysis
Chain of L-lactate dehydrogenase B chain (Homo sapiens), P07195 [I9A] (P07195 whole entry I9A): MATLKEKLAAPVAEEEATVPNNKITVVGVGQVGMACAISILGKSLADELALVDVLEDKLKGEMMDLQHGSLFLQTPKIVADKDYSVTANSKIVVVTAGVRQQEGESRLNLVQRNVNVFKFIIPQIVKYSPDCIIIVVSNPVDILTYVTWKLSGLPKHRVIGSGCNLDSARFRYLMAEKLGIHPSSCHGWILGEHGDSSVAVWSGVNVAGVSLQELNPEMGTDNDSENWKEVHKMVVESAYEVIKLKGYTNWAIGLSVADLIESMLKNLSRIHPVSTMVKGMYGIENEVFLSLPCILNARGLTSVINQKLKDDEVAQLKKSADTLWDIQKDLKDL

[11] = molecular target: T1, L-lactate dehydrogenase B chain; experiment: Binding affinity to full length human N-terminal His6-tagged LDH-H expressed in Escherichia coli Rosetta (DE3) assessed as melting temperature heated up to 95 degree C for 3 mins by nano differential scanning fluorimetry analysis
Target sequence in this assay (P07195 2-334 limits assumed): as the sequence (P07195 2-334 limits assumed) above

[12] = tested on: L-lactate dehydrogenase B chain (Homo sapiens), P07195 [E6A]; experiment: Binding affinity to full length human N-terminal His6-tagged LDH-H E5A mutant expressed in Escherichia coli Rosetta (DE3) assessed as melting temperature heated up to 95 degree C for 3 mins by nano differential scanning fluorimetry analysis
Chain of L-lactate dehydrogenase B chain (Homo sapiens), P07195 [E6A] (P07195 whole entry E6A): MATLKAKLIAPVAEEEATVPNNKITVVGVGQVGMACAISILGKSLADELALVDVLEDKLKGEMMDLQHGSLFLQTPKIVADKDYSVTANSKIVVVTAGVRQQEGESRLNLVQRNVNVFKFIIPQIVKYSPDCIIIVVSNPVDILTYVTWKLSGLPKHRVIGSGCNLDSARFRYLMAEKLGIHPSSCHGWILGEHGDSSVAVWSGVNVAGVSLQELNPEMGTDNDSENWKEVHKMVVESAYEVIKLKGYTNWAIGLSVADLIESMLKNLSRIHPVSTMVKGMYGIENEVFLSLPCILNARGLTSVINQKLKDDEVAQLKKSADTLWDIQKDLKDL

[13] = molecular target: L-lactate dehydrogenase B chain (Homo sapiens, UniProt P07195, I9A); experiment: Binding affinity full length human N-terminal His6-tagged LDH-H I8A mutant expressed in Escherichia coli Rosetta (DE3) assessed as tetrameric disruption by nano differential scanning fluorimetry analysis
Chain of L-lactate dehydrogenase B chain (Homo sapiens, UniProt P07195, I9A) (P07195 2-334 I9A limits assumed): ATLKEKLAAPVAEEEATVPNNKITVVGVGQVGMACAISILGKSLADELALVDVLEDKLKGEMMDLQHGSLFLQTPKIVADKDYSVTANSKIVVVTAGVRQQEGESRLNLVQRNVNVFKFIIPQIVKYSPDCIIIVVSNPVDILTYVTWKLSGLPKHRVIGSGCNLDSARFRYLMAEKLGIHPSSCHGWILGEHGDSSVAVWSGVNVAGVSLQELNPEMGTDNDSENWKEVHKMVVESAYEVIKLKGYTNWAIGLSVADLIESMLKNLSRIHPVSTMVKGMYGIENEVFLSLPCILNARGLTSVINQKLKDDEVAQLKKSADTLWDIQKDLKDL

[14] = molecular target: T1, L-lactate dehydrogenase B chain; experiment: Binding affinity to truncated human N-terminal His6-tagged LDH-H expressed in Escherichia coli Rosetta (DE3) assessed as melting temperature heated up to 95 degree C for 3 mins by nano differential scanning fluorimetry analysis
Target sequence in this assay (P07195 2-334 limits assumed): as the sequence (P07195 2-334 limits assumed) above

[15] = tested on: L-lactate dehydrogenase B chain (Homo sapiens), P07195 [L4A]; experiment: Binding affinity to full length human N-terminal His6-tagged LDH-H L3A mutant expressed in Escherichia coli Rosetta (DE3) assessed as change in melting temperature heated up to 95 degree C for 3 mins by nano differential scanning fluorimetry analysis
Chain of L-lactate dehydrogenase B chain (Homo sapiens), P07195 [L4A] (P07195 whole entry L4A): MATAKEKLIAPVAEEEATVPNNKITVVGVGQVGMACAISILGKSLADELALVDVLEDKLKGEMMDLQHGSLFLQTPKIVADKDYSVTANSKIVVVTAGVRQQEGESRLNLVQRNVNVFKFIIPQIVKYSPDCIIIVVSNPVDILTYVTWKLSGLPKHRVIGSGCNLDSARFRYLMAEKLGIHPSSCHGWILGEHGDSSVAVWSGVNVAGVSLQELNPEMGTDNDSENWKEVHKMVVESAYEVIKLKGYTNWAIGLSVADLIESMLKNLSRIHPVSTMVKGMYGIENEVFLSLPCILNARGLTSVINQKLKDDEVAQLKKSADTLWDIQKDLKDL

[16] = tested on: L-lactate dehydrogenase B chain (Homo sapiens), P07195 [L8A]; experiment: Binding affinity to full length human N-terminal His6-tagged LDH-H L7A mutant expressed in Escherichia coli Rosetta (DE3) assessed as melting temperature heated up to 95 degree C for 3 mins by nano differential scanning fluorimetry analysis
Chain of L-lactate dehydrogenase B chain (Homo sapiens), P07195 [L8A] (P07195 whole entry L8A): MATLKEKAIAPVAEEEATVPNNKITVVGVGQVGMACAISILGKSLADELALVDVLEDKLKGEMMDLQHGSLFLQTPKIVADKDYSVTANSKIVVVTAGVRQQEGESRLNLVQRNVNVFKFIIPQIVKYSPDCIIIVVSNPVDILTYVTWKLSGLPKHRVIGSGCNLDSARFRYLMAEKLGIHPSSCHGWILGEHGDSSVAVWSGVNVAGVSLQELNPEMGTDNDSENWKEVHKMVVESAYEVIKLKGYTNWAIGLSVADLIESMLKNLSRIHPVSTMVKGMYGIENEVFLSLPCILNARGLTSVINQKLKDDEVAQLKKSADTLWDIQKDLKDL

[17] = molecular target: L-lactate dehydrogenase B chain (Homo sapiens, UniProt P07195, K7A); experiment: Binding affinity full length human N-terminal His6-tagged LDH-H K6A mutant expressed in Escherichia coli Rosetta (DE3) assessed as tetrameric disruption by nano differential scanning fluorimetry analysis
Chain of L-lactate dehydrogenase B chain (Homo sapiens, UniProt P07195, K7A) (P07195 2-334 K7A limits assumed): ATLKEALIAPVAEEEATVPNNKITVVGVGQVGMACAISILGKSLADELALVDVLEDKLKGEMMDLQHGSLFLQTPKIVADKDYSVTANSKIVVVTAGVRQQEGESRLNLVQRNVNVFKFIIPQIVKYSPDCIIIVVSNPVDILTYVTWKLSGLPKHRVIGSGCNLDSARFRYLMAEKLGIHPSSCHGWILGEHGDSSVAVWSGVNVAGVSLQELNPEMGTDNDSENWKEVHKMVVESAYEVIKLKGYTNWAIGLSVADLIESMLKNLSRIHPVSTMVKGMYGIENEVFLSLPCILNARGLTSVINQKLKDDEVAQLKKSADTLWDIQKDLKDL

[18] = tested on: L-lactate dehydrogenase B chain (Homo sapiens), P07195 [K7A]; experiment: Binding affinity to full length human N-terminal His6-tagged LDH-H K6A mutant expressed in Escherichia coli Rosetta (DE3) assessed as melting temperature heated up to 95 degree C for 3 mins by nano differential scanning fluorimetry analysis
Chain of L-lactate dehydrogenase B chain (Homo sapiens), P07195 [K7A] (P07195 whole entry K7A): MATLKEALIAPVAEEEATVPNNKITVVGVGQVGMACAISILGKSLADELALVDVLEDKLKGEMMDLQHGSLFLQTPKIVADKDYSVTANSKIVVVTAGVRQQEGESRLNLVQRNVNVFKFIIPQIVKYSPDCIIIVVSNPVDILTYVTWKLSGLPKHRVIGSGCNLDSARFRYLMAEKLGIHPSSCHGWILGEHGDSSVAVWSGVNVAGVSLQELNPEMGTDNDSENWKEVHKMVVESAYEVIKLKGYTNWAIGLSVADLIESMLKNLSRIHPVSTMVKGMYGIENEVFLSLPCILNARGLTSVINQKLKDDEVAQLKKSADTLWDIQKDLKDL

[19] = molecular target: L-lactate dehydrogenase B chain (Homo sapiens, UniProt P07195, L4A); experiment: Binding affinity full length human N-terminal His6-tagged LDH-H L3A mutant expressed in Escherichia coli Rosetta (DE3) assessed as tetrameric disruption by nano differential scanning fluorimetry analysis
[20] = molecular target: L-lactate dehydrogenase B chain (Homo sapiens, UniProt P07195, K5A); experiment: Binding affinity full length human N-terminal His6-tagged LDH-H K4A mutant expressed in Escherichia coli Rosetta (DE3) assessed as tetrameric disruption by nano differential scanning fluorimetry analysis
Chain of L-lactate dehydrogenase B chain (Homo sapiens, UniProt P07195, K5A) (P07195 2-334 K5A limits assumed): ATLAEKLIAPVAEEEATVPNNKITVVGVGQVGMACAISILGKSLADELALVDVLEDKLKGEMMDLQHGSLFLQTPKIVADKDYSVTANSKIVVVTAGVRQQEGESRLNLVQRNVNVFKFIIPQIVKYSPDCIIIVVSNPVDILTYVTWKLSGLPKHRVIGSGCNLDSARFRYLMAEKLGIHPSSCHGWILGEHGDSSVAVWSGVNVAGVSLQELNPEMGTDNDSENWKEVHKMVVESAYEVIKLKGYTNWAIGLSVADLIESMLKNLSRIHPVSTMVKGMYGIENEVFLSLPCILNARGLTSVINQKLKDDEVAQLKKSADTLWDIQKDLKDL

[21] = molecular target: L-lactate dehydrogenase B chain (Homo sapiens, UniProt P07195, T3A); experiment: Binding affinity full length human N-terminal His6-tagged LDH-H T2A mutant expressed in Escherichia coli Rosetta (DE3) assessed as tetrameric disruption by nano differential scanning fluorimetry analysis
Chain of L-lactate dehydrogenase B chain (Homo sapiens, UniProt P07195, T3A) (P07195 2-334 T3A limits assumed): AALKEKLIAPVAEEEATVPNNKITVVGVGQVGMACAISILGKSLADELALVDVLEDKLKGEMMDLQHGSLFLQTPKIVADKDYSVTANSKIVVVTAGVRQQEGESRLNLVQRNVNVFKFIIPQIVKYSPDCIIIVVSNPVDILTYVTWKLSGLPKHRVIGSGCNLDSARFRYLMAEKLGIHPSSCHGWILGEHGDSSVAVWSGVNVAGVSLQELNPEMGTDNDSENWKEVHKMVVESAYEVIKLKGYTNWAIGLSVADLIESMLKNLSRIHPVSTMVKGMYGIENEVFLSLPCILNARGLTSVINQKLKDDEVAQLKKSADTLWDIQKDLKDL

[22] = tested on: L-lactate dehydrogenase B chain (Homo sapiens), P07195 [I9A]; experiment: Binding affinity to full length human N-terminal His6-tagged LDH-H I8A mutant expressed in Escherichia coli Rosetta (DE3) assessed as melting temperature heated up to 95 degree C for 3 mins by nano differential scanning fluorimetry analysis
[23] = tested on: L-lactate dehydrogenase B chain (Homo sapiens), P07195 [K5A]; experiment: Binding affinity to full length human N-terminal His6-tagged LDH-H K4A mutant expressed in Escherichia coli Rosetta (DE3) assessed as melting temperature heated up to 95 degree C for 3 mins by nano differential scanning fluorimetry analysis
Chain of L-lactate dehydrogenase B chain (Homo sapiens), P07195 [K5A] (P07195 whole entry K5A): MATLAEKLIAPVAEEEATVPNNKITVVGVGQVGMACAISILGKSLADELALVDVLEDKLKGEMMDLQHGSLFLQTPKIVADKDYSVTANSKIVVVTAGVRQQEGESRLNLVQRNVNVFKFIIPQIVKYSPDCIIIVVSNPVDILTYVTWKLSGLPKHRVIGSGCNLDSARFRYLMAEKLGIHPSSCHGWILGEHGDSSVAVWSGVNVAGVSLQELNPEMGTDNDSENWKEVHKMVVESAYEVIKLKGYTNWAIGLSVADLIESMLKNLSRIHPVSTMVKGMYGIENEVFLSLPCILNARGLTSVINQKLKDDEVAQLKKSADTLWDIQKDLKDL

[24] = tested on: L-lactate dehydrogenase B chain (Homo sapiens), P07195 [T3A]; experiment: Binding affinity to full length human N-terminal His6-tagged LDH-H T2A mutant expressed in Escherichia coli Rosetta (DE3) assessed as melting temperature heated up to 95 degree C for 3 mins by nano differential scanning fluorimetry analysis
Chain of L-lactate dehydrogenase B chain (Homo sapiens), P07195 [T3A] (P07195 whole entry T3A): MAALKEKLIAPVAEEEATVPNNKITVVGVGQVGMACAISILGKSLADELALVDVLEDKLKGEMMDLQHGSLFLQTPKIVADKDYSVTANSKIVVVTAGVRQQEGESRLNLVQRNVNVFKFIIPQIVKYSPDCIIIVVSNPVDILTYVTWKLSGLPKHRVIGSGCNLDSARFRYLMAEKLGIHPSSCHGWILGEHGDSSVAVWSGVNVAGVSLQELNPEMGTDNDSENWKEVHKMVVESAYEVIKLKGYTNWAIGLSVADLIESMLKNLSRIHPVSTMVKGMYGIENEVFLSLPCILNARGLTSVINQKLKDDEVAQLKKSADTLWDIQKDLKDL

[25] = tested on: L-lactate dehydrogenase B chain (Homo sapiens), P07195 [L4A]; experiment: Binding affinity to full length human N-terminal His6-tagged LDH-H L3A mutant expressed in Escherichia coli Rosetta (DE3) assessed as melting temperature heated up to 95 degree C for 3 mins by nano differential scanning fluorimetry analysis
[26] = molecular target: T1, L-lactate dehydrogenase B chain; experiment: Binding affinity to full length human N-terminal His6-tagged LDH-H expressed in Escherichia coli Rosetta (DE3) assessed as effect on tetramerization site at 100 to 200 uM in sodium phosphate buffer at pH 7.6 by WaterLOGSY NMR analysis
Target sequence in this assay (P07195 2-334 limits assumed): as the sequence (P07195 2-334 limits assumed) above

[27] = Conformational stability in sodium phosphate buffer assessed as helical structural propensity at 200 uM and pH 7.6 at 25 degree C by circular dichroism method; assay type: physicochemical; conditions: pH 7.6, 200 µM
[28] = molecular target: T1, L-lactate dehydrogenase B chain; experiment: Binding affinity to full length human N-terminal His6-tagged LDH-H expressed in Escherichia coli Rosetta (DE3) in sodium phosphate buffer at pH 7.6 by WaterLOGSY NMR analysis
Target sequence in this assay (P07195 whole entry, the tested form may be a part): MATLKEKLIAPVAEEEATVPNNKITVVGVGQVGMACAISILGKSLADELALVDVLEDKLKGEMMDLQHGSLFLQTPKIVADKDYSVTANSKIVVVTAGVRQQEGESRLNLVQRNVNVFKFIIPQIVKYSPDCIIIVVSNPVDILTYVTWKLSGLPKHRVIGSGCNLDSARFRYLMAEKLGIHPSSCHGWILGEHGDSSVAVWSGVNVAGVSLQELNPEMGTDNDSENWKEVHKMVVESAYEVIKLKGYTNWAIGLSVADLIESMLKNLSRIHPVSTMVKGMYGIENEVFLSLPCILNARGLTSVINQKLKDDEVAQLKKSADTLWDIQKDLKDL

[29] = molecular target: L-lactate dehydrogenase A chain (Oryctolagus cuniculus) (UniProt P13491); experiment: Binding affinity to rabbit LDH-5 assessed as acid-induced dimerization by measuring fluorescence recovery at 50 uM pH 7.6 by nano differential scanning fluorimetry analysis
[30] = Conformational stability in sodium phosphate buffer assessed as increase in alpha-helicity with theta 222 band formation at 100 uM by circular dichroism method; assay type: physicochemical
[31] = molecular target: T1, L-lactate dehydrogenase B chain; experiment: Binding affinity to full length human N-terminal His6-tagged LDH-H expressed in Escherichia coli Rosetta (DE3) assessed as saturation transfer at lipophilic residues at 800 uM in sodium phosphate buffer at pH 7.6 by WaterLOGSY NMR analysis
[32] = Conformational stability in water assessed as helical structural propensity by circular dichroism method; assay type: physicochemical; conditions: buffer
[33] = molecular target: T1, L-lactate dehydrogenase B chain; experiment: Binding affinity to recombinant full length human His-tagged LDH-1 (1 to 322 residues) expressed in Escherichia coli by WaterLOGSY NMR analysis
Target sequence in this assay (P07195 whole entry, the tested form may be a part): as above

[34] = Conformational stability in water assessed as helical structural propensity by 2D NMR-ROESY analysis; assay type: physicochemical; conditions: buffer

With CC[C@H](C)[C@@H]1NC(=O)[C@H](CC(C)C)NC(=O)[C@@H](NC(=O)[C@H](CCC(=O)O)NC(=O)[C@H](CCCCN)NC(=O)[C@H](CC(C)C)NC(=O)[C@@H](NC(=O)[C@H](C)N)[C@@H](C)O)CSCc2cccc(c2)CSC[C@@H](C(N)=O)NC(=O)[C@H](C)NC1=O (HELM PEPTIDE1{A.T.L.K.E.C.L.I.A.C.[am]}|CHEM1{[c1cc(C[*:1])cc(C[*:2])c1]}$PEPTIDE1,CHEM1,6:R3-1:R1|PEPTIDE1,CHEM1,10:R3-1:R2$$$V2.0) the Kd [1] was greater than 1 mM.
In the case of CC[C@H](C)[C@@H]1NC(=O)[C@H](CC(C)C)NC(=O)[C@@H](NC(=O)[C@H](CCC(=O)O)NC(=O)[C@H](CCCCN)NC(=O)[C@H](CC(C)C)NC(=O)[C@@H](NC(=O)[C@H](C)N)[C@@H](C)O)CCCCNC1=O (HELM PEPTIDE1{A.T.L.K.E.K.L.I}$PEPTIDE1,PEPTIDE1,6:R3-8:R2$$$V2.0), the Kd [1] is reported as greater than 1 mM.
For CC[C@H](C)[C@H](NC(=O)[C@H](CC(C)C)NC(=O)C(C)(C)NC(=O)[C@H](CCC(=O)O)NC(=O)[C@H](CCCCN)NC(=O)[C@H](CC(C)C)NC(=O)[C@@H](NC(=O)[C@H](C)N)[C@@H](C)O)C(N)=O (HELM PEPTIDE1{A.T.L.K.E.[Aib].L.I.[am]}$$$$V2.0), the Activity [1] was “inactive” and the Activity [2] was “Active”.
For CC[C@H](C)[C@H](NC(=O)[C@H](CC(C)C)NC(=O)[C@H](CCCCN)NC(=O)[C@H](CCC(=O)O)NC(=O)C(C)(C)NC(=O)[C@H](CC(C)C)NC(=O)[C@@H](NC(=O)[C@H](C)N)[C@@H](C)O)C(N)=O (HELM PEPTIDE1{A.T.L.[Aib].E.K.L.I.[am]}$$$$V2.0), the Activity [1] was “inactive” and the Activity [2] was “Active”.
CC[C@H](C)C(NC(=O)[C@H](CC(C)C)NC(=O)[C@H](CCCCN)NC(=O)[C@H](CCC(=O)O)NC(=O)[C@@H]1CSCc2cccc(c2)CSC[C@H](N)C(=O)N[C@@H](C)C(=O)N[C@@H]([C@@H](C)O)C(=O)N[C@@H](CC(C)C)C(=O)N1)C(N)=O (stereo partly drawn) (HELM PEPTIDE1{C.A.T.L.C.E.K.L.[CC[C@H](C)C(N[*:1])C(=O)[*:2]].[am]}|CHEM1{[c1cc(C[*:1])cc(C[*:2])c1]}$PEPTIDE1,CHEM1,1:R3-1:R1|PEPTIDE1,CHEM1,5:R3-1:R2$$$V2.0) showed a Kd [1] greater than 1 mM.
In the case of CC[C@H](C)[C@H](NC(=O)[C@H](CC(C)C)NC(=O)[C@H](CCCCN)NC(=O)[C@@H]1CSCc2cccc(c2)CSC[C@H](N)C(=O)N[C@@H]([C@@H](C)O)C(=O)N[C@@H](CC(C)C)C(=O)N[C@@H](CCCCN)C(=O)N1)C(N)=O (HELM PEPTIDE1{C.T.L.K.C.K.L.I.[am]}|CHEM1{[c1cc(C[*:1])cc(C[*:2])c1]}$PEPTIDE1,CHEM1,1:R3-1:R1|PEPTIDE1,CHEM1,5:R3-1:R2$$$V2.0), the Activity [3] is reported as “inactive”, the Activity [4] is reported as “inactive” and the Activity [5] is reported as “inactive”. For the same molecule, the Activity [6] was “inactive”, the Stability [7] was “Stable” and the Activity [8] was “inactive”. For the same molecule, the Activity [9] was “Active”.
Work on N=C(N)N [GUANIDINE HYDROCHLORIDE] yielded a ΔTm [10] of 24.6 °C, a Tm [11] of 74.5 °C and a Tm [12] of 73.3 °C. For the same molecule, the EC50 [13] was 233 mM, the Tm [14] was 57.5 °C and the ΔTm [15] was 13.3 °C. It also gave a Tm [16] of 55.6 °C, an EC50 [17] of 954 mM and a Tm [18] of 67.9 °C. It also gave an EC50 [19] of 624 mM, an EC50 [20] of 991 mM and an EC50 [21] of 978 mM. It also gave a Tm [22] of 49.9 °C, a Tm [23] of 65.8 °C and a Tm [24] of 72.4 °C. For the same molecule, the Tm [25] was 61.2 °C.
With Ac-TLKEKLI-NH2 the Activity [26] was “inactive” and the Stability [27] was “Unstable”.
With H-AALKEKLI-NH2 the Activity [26] was “inactive”.
With H-ATAKEKLI-NH2 the Activity [26] was “inactive”.
With H-ATGKEKLI-NH2 the Activity [26] was “inactive”.
With H-ATLAEKLI-NH2 the Activity [26] was “inactive”.
In the case of H-ATLKAKLI-NH2, the Activity [26] is reported as “inactive”.
In the case of H-ATLKDQLI-OH, the Kd [28] is reported as 1.49 mM.
For H-ATLKEALI-NH2, the Activity [26] was “inactive”.
With H-ATLKEKAI-NH2 the Activity [26] was “inactive”.
In the case of H-ATLKEKL-NH2, the Activity [26] is reported as “inactive” and the Stability [27] is reported as “Unstable”.
In the case of H-ATLKEKLA-NH2, the Activity [26] is reported as “inactive”.
For H-ATLKEKLG-NH2, the Activity [26] was “inactive”.
With H-ATLKEKLI-NH2 the Kd [28] was 1.02 mM, the Activity [29] was “Active” and the Stability [30] was “Stable”. The Activity [31] was “Active”, the Stability [32] was “Unstable” and the Activity [33] was “Not Active”. For the same molecule, the Stability [34] was “Unstable”.
Molecule H-ATLKEKLIAPVAE-NH2 has a Kd [28] of 1.05 mM.
For H-GTLKEKLI-NH2, the Activity [26] was “inactive”.
